{"source": "patent US20110166161A1", "about": "“HETEROCYCLIC CARBOXAMIDE COMPOUNDS” (Astellas Pharma Inc., priority 2008, published 2011)", "key": {"human ROCK I": {"molecular_target": "human ROCK I (Homo sapiens, UniProt Q13464)", "sequence (Q13464 whole entry)": "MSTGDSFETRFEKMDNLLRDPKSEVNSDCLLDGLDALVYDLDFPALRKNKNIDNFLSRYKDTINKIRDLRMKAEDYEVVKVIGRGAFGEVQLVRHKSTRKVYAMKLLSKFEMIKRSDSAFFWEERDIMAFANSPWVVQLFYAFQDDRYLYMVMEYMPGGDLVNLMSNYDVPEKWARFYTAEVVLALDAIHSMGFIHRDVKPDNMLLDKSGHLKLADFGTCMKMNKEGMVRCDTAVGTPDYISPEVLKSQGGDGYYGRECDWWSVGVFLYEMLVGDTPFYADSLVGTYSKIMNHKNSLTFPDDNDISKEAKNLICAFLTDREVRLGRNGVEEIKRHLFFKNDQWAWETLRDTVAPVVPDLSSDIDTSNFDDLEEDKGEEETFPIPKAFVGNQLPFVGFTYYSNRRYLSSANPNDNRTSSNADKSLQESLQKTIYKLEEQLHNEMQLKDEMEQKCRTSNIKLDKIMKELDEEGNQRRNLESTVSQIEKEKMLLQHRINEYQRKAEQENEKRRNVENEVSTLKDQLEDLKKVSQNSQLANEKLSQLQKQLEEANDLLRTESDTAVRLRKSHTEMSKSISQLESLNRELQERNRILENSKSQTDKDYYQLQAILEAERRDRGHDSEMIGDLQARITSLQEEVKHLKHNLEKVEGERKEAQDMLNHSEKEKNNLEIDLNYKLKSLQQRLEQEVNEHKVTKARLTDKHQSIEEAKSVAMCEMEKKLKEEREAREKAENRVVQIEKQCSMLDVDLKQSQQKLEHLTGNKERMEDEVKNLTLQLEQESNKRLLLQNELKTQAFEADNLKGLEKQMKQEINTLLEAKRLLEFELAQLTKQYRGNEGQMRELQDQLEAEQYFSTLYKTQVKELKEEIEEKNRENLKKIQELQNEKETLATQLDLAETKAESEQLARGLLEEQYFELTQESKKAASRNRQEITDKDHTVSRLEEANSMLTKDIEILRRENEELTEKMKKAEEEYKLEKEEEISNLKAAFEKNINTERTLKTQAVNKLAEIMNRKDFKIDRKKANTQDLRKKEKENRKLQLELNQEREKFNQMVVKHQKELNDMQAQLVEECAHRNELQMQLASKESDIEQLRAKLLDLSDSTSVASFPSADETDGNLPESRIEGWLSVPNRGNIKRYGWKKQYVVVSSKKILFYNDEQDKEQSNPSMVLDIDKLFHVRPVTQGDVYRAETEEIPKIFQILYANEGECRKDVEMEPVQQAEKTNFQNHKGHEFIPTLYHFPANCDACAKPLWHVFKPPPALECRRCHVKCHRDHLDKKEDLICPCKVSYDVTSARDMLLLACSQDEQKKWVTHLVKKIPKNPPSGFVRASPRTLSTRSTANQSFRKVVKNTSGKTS", "experiment": "ROCK enzyme inhibition assay", "format": "biochemical", "protocol": "ROCK enzyme inhibitory activity of the compounds of the present invention has been assayed as follow. An aqueous solution of Rho kinase substrate MYTP was added to 96-well plate. Following incubation for overnight at 4° C., the plate was blocked by using blocking buffer containing BSA. To the plate was added reaction buffer containing each concentration of compound, suitable concentration of human ROCK I (Caruna Biosciences), ATP, β-glycerol phosphate, EGTA, sodium orthovanadate and DTT, and then the plate was incubated for 1 hour. After washing the plate by washing buffer, anti-phosphothreonin antibody was added to the plate, and then the plate was incubated for 1 hour. After washing the plate by washing buffer again, HRP-conjugated anti-phosphorylated protein antibody was added to the plate, and then the plate was incubated for 1 hour. After washing the plate by washing buffer again, colorimetric substrate TMB microwell peroxidase substrate was added to the plate, and then the plate was incubated for appropriate time. After incubation, sulfuric acid was added to the plate to stop the reaction, and then absorbance (450 nm) was measured by using spectromether. Based, on the absorbance for each compound, the data is fit using Prism software to obtain a IC50 value."}, "Male SD rats": {"test_system": "Male SD rats", "experiment": "Changes in hindlimb weight distribution after intra-articular monosodium iodoacetate (MIA) injection", "format": "in vivo", "conditions": "Rattus norvegicus, 504 h; oral administration; MIA-injected rats, three weeks after injection", "excerpt": "As intra-articular injection of monosodium iodoacetate (MIA) induced human osteoarthritis-like histopathological changes in knee joint, this model would be very useful for the study of human osteoarthritis. Recently, it is reported the clinical scores of the joint pain were closely correlated to the grade of histological findings (J Vet Med Sci 65, 1195, 2003) and this model may be useful for estimation of therapeutic effects of pain with osteoarthritis.\nMale SD rats were anesthetized with halothane (Takeda, Japan) and given single intra-articular injection of 1 mg of monosodium iodoacetate (MIA; Sigma, St. Louis, USA) through the infrapatellar ligament of the right knee. MIA was dissolved with physiologic saline and administered in a volume of 50 μl using a 27-gauge, 0.5-inch needle. Three weeks after the injection, hindlimb weight distribution was determined using an incapacitance tester (Linton Instrumentation, Norfork, UK). Rats were allowed to acclimate to the testing apparatus and when stationary, readings were taken over a 5 s period. […] Each group in each experiment was performed in about 8 animals."}, "Male Wistar rats [1]": {"test_system": "Male Wistar rats", "experiment": "Effects on hindlimb blood flow (laser Doppler)", "format": "in vivo", "conditions": "po; 10 mg/kg p.o.; rat hindlimb; read-out: % of increase of blood flow", "excerpt": "As one of the study to clarify the usefulness of the compounds of the present invention for peripheral arterial disease, we conducted a study to evaluate the effects of the compounds on hindlimb blood flow in rats.\nMale Wistar rats were anesthetized by intraperitoneal pentobarbital injection (Kanto chemical, Japan) after oral administration of compounds. Rats were placed on a heating plate for subsequent hindlimb blood flow analysis. We measured hindlimb blood flow using a laser Doppler blood flow meter (PeriScan System, Stockholm, Sweden). After the laser Doppler images were recorded, the average perfusion values of both limbs were calculated, and evaluated the effects of compounds on hindlimb blood flow. Each experiment was performed in about 4 animals."}, "Male Wistar rats [2]": {"test_system": "Male Wistar rats", "experiment": "Inhibitory effects on phenylephrine-induced elevation of urethral pressure", "format": "in vivo", "conditions": "Rattus norvegicus, iv; phenylephrine 30 μg/kg i.v.; anesthetized rats; read-out: Inhibition of elevation in urethral pressure ED30", "excerpt": "To evaluate the usefulness of the compounds of the present invention for urinary dysfunction associated with benign prostatic hyperplasia, we investigated the inhibitory effects of the intravenous administration of the compounds on phenylephrine-induced elevation of the urethral pressure in rats.\nMale Wistar rats were anesthetized with urethane (SIGMA, USA). After midline abdominal incision, catheter to measure the urethral pressure (3.5 Fr, Millar, USA) was inserted into the urethra from top of the bladder. After confirming the Phenylephrine (30 μg/kg i.v.)-induced elevation of the urethral pressure, compounds were administered intravenously in increasing doses. Every 5 min after administration of compounds, Phenylephrine (30 μg/kg i.v.) was injected, and the inhibitory effects of compounds on phenylephrine-induced elevation of urethral pressure were evaluated. Each experiment was performed in about 4 animals."}, "female C57Bl/6 mice": {"test_system": "female C57Bl/6 mice", "experiment": "Bleomycin-induced lung fibrosis model, hydroxyproline content of the lung", "format": "in vivo, mouse", "conditions": "1 mg/kg orally once a day from day 1 to day 35; lung removed day 36", "protocol": "To induce pulmonary fibrosis, ten mg/kg bleomycin (Nipponkayaku Industries Ltd, Tokyo, Japan) was intraperitoneally injected into female C57Bl/6 mice (9 weeks old, Charles River Laboratories Japan, Inc.) once a day from day 1 to day 10. Bleomycin was dissolved in saline and control mice were intraperitoneally injected with saline. The compound or vehicle was orally administered to the mice once a day from day 1 to day 35. On day 36, mice were sacrificed under anesthesia of pentobarbital and the lung was surgically removed. Hydroxyproline content of the lung was assayed according to the method of Woessner JF (1)."}, "beagle dogs": {"test_system": "beagle dogs", "experiment": "In vivo eye pressure lowering effect (IOP), beagle dogs", "conditions": "beagle dog, 10 mM applied topically", "protocol": "(§1) The intraocular pressure (IOP) was determined in beagle dogs and rats with tonometer (TONO-PEN™, MENTOR and TonoLab™, M. E. Technica), specially calibrated for the eye of the particular species. In beagle dogs, the cornea was anesthetized with oxibuprocain before each IOP measurement."}, "rats": {"test_system": "rats", "experiment": "In vivo eye pressure lowering effect (IOP), rats", "conditions": "rat, 10 mM applied topically", "protocol": "as §1"}}, "note": "Structures can show the parent of a compound that is named as a salt.", "data": [{"compound": "COc1nc(N[C@H]2CC[C@H](N)CC2)ccc1C(N)=O", "note": "[Example 1, 6-[(trans-4-aminocyclohexyl)amino]-2-methoxynicotinamide dihydrochloride]", "values": [{"measurement": "IC50", "setting": "human ROCK I", "result": 2, "unit": "nM"}, {"measurement": "ED50", "setting": "Male SD rats", "result": "< 1", "unit": "mg/kg"}, {"measurement": "change in vivo at 10 mg/kg", "setting": "Male Wistar rats [1]", "result": "> 130", "unit": "%"}, {"measurement": "ED30", "setting": "Male Wistar rats [2]", "result": "< 0.5", "unit": "mg/kg"}]}, {"compound": "COc1nc(N[C@H]2CC[C@H](N)CC2)c(F)cc1C(N)=O", "note": "[Example 2, 6-[(trans-4-aminocyclohexyl)amino]-5-fluoro-2-methoxynicotinamide dihydrochloride]", "values": [{"measurement": "IC50", "setting": "human ROCK I", "result": 2, "unit": "nM"}, {"measurement": "ED50", "setting": "Male SD rats", "result": "< 1", "unit": "mg/kg"}, {"measurement": "change in vivo at 10 mg/kg", "setting": "Male Wistar rats [1]", "result": "> 130", "unit": "%"}, {"measurement": "ED30", "setting": "Male Wistar rats [2]", "result": "< 0.5", "unit": "mg/kg"}]}, {"compound": "COc1nc(N[C@H]2CC[C@H](N)CC2)c(F)cc1C(N)=O", "note": "[Example 3, 6-[(trans-4-aminocyclohexyl)amino]-5-fluoro-2-methoxynicotinamide]", "values": [{"measurement": "reduction of hydroxyproline content of the lung", "setting": "female C57Bl/6 mice", "result": 66, "unit": "%"}, {"measurement": "IOP change in animals after 4 hours", "setting": "beagle dogs", "result": "−16", "unit": "% reduced in beagle dog"}]}, {"compound": "COc1nc(N[C@H]2CC[C@H](N)CC2)c(Cl)cc1C(N)=O", "note": "[Example 4, 6-[(trans-4-aminocyclohexyl)amino]-5-chloro-2-methoxynicotinamide]", "values": [{"measurement": "IC50", "setting": "human ROCK I", "result": 5, "unit": "nM"}, {"measurement": "ED50", "setting": "Male SD rats", "result": "< 1", "unit": "mg/kg"}, {"measurement": "change in vivo at 10 mg/kg", "setting": "Male Wistar rats [1]", "result": "> 130", "unit": "%"}, {"measurement": "ED30", "setting": "Male Wistar rats [2]", "result": "< 0.5", "unit": "mg/kg"}]}, {"compound": "COc1nc(N[C@H]2CC[C@H](N)CC2)c(Br)cc1C(N)=O", "note": "[Example 5, 6-[(trans-4-aminocyclohexyl)amino]-5-bromo-2-methoxynicotinamide]", "values": [{"measurement": "IC50", "setting": "human ROCK I", "result": 39, "unit": "nM"}, {"measurement": "ED50", "setting": "Male SD rats", "result": "< 3", "unit": "mg/kg"}, {"measurement": "change in vivo at 10 mg/kg", "setting": "Male Wistar rats [1]", "result": "> 130", "unit": "%"}, {"measurement": "ED30", "setting": "Male Wistar rats [2]", "result": "< 0.5", "unit": "mg/kg"}]}, {"compound": "CCOc1nc(N[C@H]2CC[C@H](N)CC2)ccc1C(N)=O", "note": "[Example 6, 6-[(trans-4-aminocyclohexyl)amino]-2-ethoxynicotinamide dihydrochloride]", "values": [{"measurement": "IC50", "setting": "human ROCK I", "result": 10, "unit": "nM"}, {"measurement": "change in vivo at 10 mg/kg", "setting": "Male Wistar rats [1]", "result": "> 130", "unit": "%"}, {"measurement": "ED30", "setting": "Male Wistar rats [2]", "result": "< 0.5", "unit": "mg/kg"}]}, {"compound": "CCOc1nc(N[C@H]2CC[C@H](N)CC2)c(F)cc1C(N)=O", "note": "[Example 7, 6-[(trans-4-aminocyclohexyl)amino]-2-ethoxy-5-fluoronicotinamide dihydrochloride]", "values": [{"measurement": "IC50", "setting": "human ROCK I", "result": 9, "unit": "nM"}, {"measurement": "change in vivo at 10 mg/kg", "setting": "Male Wistar rats [1]", "result": "> 130", "unit": "%"}, {"measurement": "ED30", "setting": "Male Wistar rats [2]", "result": "< 0.5", "unit": "mg/kg"}]}, {"compound": "CCOc1nc(N[C@H]2CC[C@H](N)CC2)c(Br)cc1C(N)=O", "note": "[Example 9, 6-[(trans-4-aminocyclohexyl)amino]-5-bromo-2-ethoxynicotinamide]", "values": [{"measurement": "IOP change in animals after 4 hours", "setting": "rats", "result": "−30", "unit": "% reduced in rat"}]}, {"compound": "CCOc1nc(N[C@H]2CC[C@H](N)CC2)c(I)cc1C(N)=O", "note": "[Example 10, 6-[(trans-4-aminocyclohexyl)amino]-5-iodo-2-ethoxynicotinamide]", "values": [{"measurement": "IOP change in animals after 4 hours", "setting": "rats", "result": "−26", "unit": "% reduced in rat"}]}, {"compound": "COc1nc(N[C@H]2CC[C@H](NS(C)(=O)=O)CC2)c(F)cc1C(N)=O", "note": "[Example 28, 6-[(trans-4-methanesulfonylaminocyclohexyl)amino]-5-fluoro-2-methoxynicotinamide]", "values": [{"measurement": "IC50", "setting": "human ROCK I", "result": 58, "unit": "nM"}, {"measurement": "change in vivo at 10 mg/kg", "setting": "Male Wistar rats [1]", "result": "> 130", "unit": "%"}, {"measurement": "ED30", "setting": "Male Wistar rats [2]", "result": "< 0.5", "unit": "mg/kg"}]}, {"compound": "COc1nc(N[C@H]2CC[C@H](NC3CCS(=O)(=O)CC3)CC2)c(F)cc1C(N)=O", "note": "[Example 30, 6-({trans-4-[(1,1-dioxidotetrahydro-2H-thiopyran-4-yl)amino]cyclohexyl}amino)-5-fluoro-2-methoxynicotinamide]", "values": [{"measurement": "IC50", "setting": "human ROCK I", "result": 7, "unit": "nM"}, {"measurement": "change in vivo at 10 mg/kg", "setting": "Male Wistar rats [1]", "result": "> 130", "unit": "%"}, {"measurement": "ED30", "setting": "Male Wistar rats [2]", "result": "< 0.5", "unit": "mg/kg"}]}]}
